“And” between values parts separate entries of the source, which are not always exact repeats. Identical values can stand only once.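 Growth conditions: 96-well plates. Treatment: test compound, 48 hours, 5 concentrations. Analysis: linear interpolation between bracketing concentrations; unreached endpoints set to highest concentration. GI50 is the concentration that inhibits growth by half. The concentration for full growth arrest is given as TGI.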
How the values were obtained:
Test in all cases: NCI tumour cell line growth inhibition, 48 h
[1] = tested on: 786-0 renal
[2] = tested on: A498 renal
[3] = tested on: A549 NSCLC
[4] = tested on: ACHN renal
[5] = tested on: CAKI-1 renal
[6] = tested on: COLO 205 colon
[7] = tested on: DMS 114 small cell lung
[8] = tested on: DMS 273 small cell lung
[9] = tested on: EKVX NSCLC
[10] = tested on: HCC-2998 colon
[11] = tested on: HCT-116 colon
[12] = tested on: HCT-15 colon
[13] = tested on: HL-60(TB) leukemia
[14] = tested on: HOP-18 NSCLC
[15] = tested on: HOP-62 NSCLC
[16] = tested on: HOP-92 NSCLC
[17] = tested on: HT29 colon
[18] = tested on: IGROV1 ovarian
[19] = tested on: K-562 leukemia
[20] = tested on: KM12 colon
[21] = tested on: KM20L2 colon
[22] = tested on: LOX IMVI melanoma
[23] = tested on: LXFL 529 NSCLC
[24] = tested on: M14 melanoma
[25] = tested on: M19-MEL melanoma
[26] = tested on: MALME-3M melanoma
[27] = tested on: MOLT-4 leukemia
[28] = tested on: NCI-H226 lung
[29] = tested on: NCI-H23 lung
[30] = tested on: NCI-H460 lung
[31] = tested on: NCI-H522 lung
[32] = tested on: OVCAR-3 ovarian
[33] = tested on: OVCAR-4 ovarian
[34] = tested on: OVCAR-5 ovarian
[35] = tested on: OVCAR-8 ovarian
[36] = tested on: RPMI-8226 leukemia
[37] = tested on: RXF 393 renal
[38] = tested on: SF-268 CNS
[39] = tested on: SF-295 CNS
[40] = tested on: SF-539 CNS
[41] = tested on: SK-MEL-2 melanoma
[42] = tested on: SK-MEL-28 melanoma
[43] = tested on: SK-MEL-5 melanoma
[44] = tested on: SK-OV-3 ovarian
[45] = tested on: SN12C renal
[46] = tested on: SNB-19 CNS
[47] = tested on: SNB-75 CNS
[48] = tested on: SNB-78 CNS
[49] = tested on: SW-620 colon
[50] = tested on: TK-10 renal
[51] = tested on: U251 CNS
[52] = tested on: UACC-257 melanoma
[53] = tested on: UACC-62 melanoma
[54] = tested on: UO-31 renal
[55] = tested on: XF 498 CNS

SMILES: COC(=O)C12OCC34C(CC5C(C)C6=CC(=O)OC6=CC5(C)C3C(O)C1O)OC(=O)C(O)C24 (centres undefined)
- GI50 [1]: 310 nM
- TGI [1]: 5660 nM
- GI50 [2]: 266 nM
- TGI [2]: 507 nM and 1490 nM
- GI50 [3]: 415 nM
- TGI [3]: 23200 nM
- GI50 [4]: 486 nM
- TGI [4]: 17100 nM
- TGI [5]: 30000 nM
- GI50 [6]: 252 nM
- GI50 [7]: 44.1 nM
- TGI [7]: 527 nM and 4350 nM
- GI50 [8]: 70.7 nM
- TGI [8]: 528 nM and 359 nM
- GI50 [9]: 249 nM
- GI50 [10]: 75 nM
- TGI [10]: 347 nM and 676 nM
- GI50 [11]: 224 nM
- TGI [11]: 6310 nM
- GI50 [12]: 458 nM
- TGI [12]: 12900 nM
- TGI [13]: 4270 nM
- GI50 [14]: 929 nM
- GI50 [15]: 177 nM
- TGI [15]: 704 nM and 3540 nM
- GI50 [16]: 146 nM
- TGI [16]: 525 nM and 2330 nM
- GI50 [17]: 1680 nM
- TGI [17]: 674 nM
- GI50 [18]: 170 nM
- TGI [18]: 436 nM and 1410 nM
- GI50 [19]: 46.8 nM
- TGI [19]: 6940 nM
- GI50 [20]: 331 nM
- TGI [20]: 12500 nM
- GI50 [21]: 638 nM
- TGI [21]: 30900 nM
- GI50 [22]: 54.2 nM
- TGI [22]: 288 nM and 1420 nM
- GI50 [23]: 37.9 nM
- TGI [23]: 737 nM and 1360 nM
- GI50 [24]: 177 nM and 767 nM
- TGI [24]: 504 nM and 2220 nM
- GI50 [25]: 133 nM
- TGI [25]: 723 nM and 2200 nM
- GI50 [26]: 89.6 nM
- TGI [26]: 351 nM and 665 nM
- GI50 [27]: 31.4 nM
- TGI [27]: 375 nM and 1270 nM
- GI50 [28]: 87.5 nM
- GI50 [29]: 156 nM
- TGI [29]: 493 nM and 1160 nM
- GI50 [30]: 61.6 nM
- TGI [30]: 716 nM and 1180 nM
- GI50 [31]: 50.1 nM
- GI50 [32]: 282 nM
- TGI [32]: 3610 nM
- GI50 [33]: 155 nM
- GI50 [34]: 599 nM
- TGI [34]: 20300 nM
- GI50 [35]: 328 nM
- TGI [35]: 14700 nM
- GI50 [36]: 33.3 nM
- TGI [36]: 116 nM and 250 nM
- GI50 [37]: 403 nM
- TGI [37]: 4490 nM
- GI50 [38]: 287 nM
- TGI [38]: 3340 nM
- GI50 [39]: 351 nM
- TGI [39]: 956 nM and 6030 nM
- GI50 [40]: 32.8 nM
- TGI [40]: 116 nM and 397 nM
- GI50 [41]: 313 nM
- TGI [41]: 944 nM and 2430 nM
- GI50 [42]: 89.9 nM
- TGI [42]: 933 nM and 2290 nM
- GI50 [43]: 373 nM
- TGI [43]: 255 nM and 2310 nM
- GI50 [44]: 328 nM
- TGI [44]: 24600 nM
- GI50 [45]: 416 nM
- TGI [45]: 34100 nM
- GI50 [46]: 52.5 nM
- GI50 [47]: 158 nM
- TGI [47]: 682 nM and 2480 nM
- GI50 [48]: 402 nM
- TGI [48]: 8310 nM
- GI50 [49]: 282 nM
- TGI [49]: 9400 nM
- GI50 [50]: 534 nM
- TGI [50]: 58200 nM
- GI50 [51]: 44.6 nM
- GI50 [52]: 339 nM
- TGI [52]: 8500 nM
- GI50 [53]: 262 nM
- TGI [53]: 779 nM and 1910 nM
- TGI [54]: 61800 nM
- GI50 [55]: 60.9 nM and 344 nM
- TGI [55]: 291 nM and 1930 nM
